Experimental data taken from patent US11065253B2, “Arylquinazolines” (Merck Patent GmbH, priority 2013, dated 2021).

tested on: phospho-serine 2056 DNA-PK in HCT116 cells; test: DNA-PK phosphorylation at serine 2056 (cellular), ELISA in bleomycin-treated HCT116 cells; type: cell-based; conditions: Homo sapiens, HCT-116, 6 h, cellular; HCT116 cells, 10 μM bleomycin, six hours; read-out: IC50 pDNA-PK
Outline: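 Chemiluminescent ELISA read-out; phospho-specific signal normalised to total DNA-PKcs. Cells (HCT116) exposed 6 h to test compound plus 10 μM bleomycin to induce double-strand breaks; DMSO control served as blank.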

Row | Compound | IC50 [µM]
1 | Cn1nccc1C(O)c1ccc(F)c(-c2nc(Cl)nc3cc(N4CCOCC4)ccc23)c1 (stereo not shown) [Example 214, [3-(2-Chloro-7-morpholin-4-yl-quinazolin-4-yl)-4-fluoro-phenyl]-(2-methyl-2H-pyrazol-3-yl)-methanol] | 10 to 30
2 | COc1cc(Cl)nnc1C(O)c1ccc(F)c(-c2ncnc3cc(N4CCOCC4)ccc23)c1 (stereo not shown) [Example 10, (6-Chloro-4-methoxy-pyridazin-3-yl)-[4-fluoro-3-(7-morpholin-4-yl-quinazolin-4-yl)phenyl]-methanol] | < 0.5
3 | COc1cnc(C(O)c2ccc(OC)c(-c3ncnc4cc(N5CCOCC5)ccc34)c2)cn1 (stereo not shown) [Example 61, [4-methoxy-3-(7-morpholin-4-yl-quinazolin-4-yl)phenyl]-(5-methoxypyrazin-2-yl)methanol] | 10 to 30
4 | Cc1nccnc1C(O)c1cc(-c2ncnc3cc(N4CCOCC4)ccc23)c(F)cc1F (stereo not shown) [Example 84, [2,4-Difluoro-5-(7-morpholin-4-yl-quinazolin-4-yl)-phenyl]-(3-methyl-pyrazin-2-yl)methanol] | < 0.5
5 | CN(C)C(=O)c1ccc(C(O)c2cc(-c3ncnc4cc(N5CCOCC5)ccc34)c(F)cc2Cl)nn1 (stereo not shown) [Example 50, 6-{[2-Chloro-4-fluoro-5-(7-morpholin-4-yl-quinazolin-4-yl)phenyl]-hydroxymethyl}-pyridazine-3-carboxylic acid dimethylamide] | 10 to 30

same assay, conditions: Homo sapiens, HCT-116, cellular DNA-PK phosphorylation at serine 2056, HCT116 cells; read-out: IC50 pDNA-PK

Row | Compound | IC50 [µM]
6 | Cc1cncnc1C(O)c1cc(-c2ncnc3cc(N4CCOCC4)ccc23)ccc1F (stereo not shown) [Example 392, [2-Fluoro-5-(7-morpholin-4-yl-quinazolin-4-yl)-phenyl]-(5-methyl-pyrimidin-4-yl)-methanol] | 0.5 to 5
7 | OC(c1cc(-c2ncnc3cc(N4CCOCC4)ccc23)ccc1Cl)c1ncnc2occc12 (stereo not shown) [Example 416, [2-Chloro-5-(7-morpholin-4-yl-quinazolin-4-yl)-phenyl]furo[2,3-d}-pyrimidin-4-yl-methanol] | 0.5 to 5
8 | Cc1cncnc1C(O)c1cc(-c2ncnc3cc(N4CCOCC4)ccc23)ccc1Cl (stereo not shown) [Example 417, [2-Chloro-5-(7-morpholin-4-yl-quinazolin-4-yl)-phenyl]-(5-methyl-pyrimidin-4-yl)-methanol (Ena 2)] | 0.5 to 5
9 | COc1nccnc1C(O)c1cc(-c2ncnc3cc(N4CCOCC4)ccc23)ccc1Cl (stereo not shown) [Example 410, [2-Chloro-5-(7-morpholin-4-yl-quinazolin-4-yl)-phenyl]-(3-methoxy-pyrazin-2-yl)-methanol (Ena 2)] | < 0.5
10 | OC(c1ccc(F)c(-c2ncnc3cc(N4CCOCC4)ccc23)c1)c1ncnc2ccoc12 (stereo not shown) [Example 442, [4-Fluoro-3-(7-morpholin-4-yl-quinazolin-4-yl)-phenyl]furo[3,2-d}-pyrimidin-4-yl-methanol] | < 0.5

same assay, conditions: Homo sapiens, HCT-116, phospho-serine 2056 DNA-PK, bleomycin-treated HCT116 cells; class symbols A-D; read-out: IC50 pDNA-PK

Row | Compound | IC50 [µM]
11 | COc1ccc([C@H](O)c2cc(-c3ncnc4cc(N5CCOCC5)ccc34)c(F)cc2Cl)nn1 [Example 135, (R)-[2-Chloro-4-fluoro-5-(7-morpholin-4-yl-quinazolin-4-yl)-phenyl]-(6-methoxy-pyridazin-3-yl)-methanol] | 10 to 30
12 | OC(c1ccc(F)c(-c2ncnc3cc(C4=CCOCC4)ccc23)c1)c1nccs1 (stereo not shown) [Example 139, {3-[7-(3,6-Dihydro-2H-pyran-4-yl)-quinazolin-4-yl]-4-fluoro-phenyl}-thiazol-2-ylmethanol] | 10 to 30
13 | CC(O)(c1ccc(F)c(-c2ncnc3cc(N4CCOCC4)ccc23)c1)c1nccs1 (stereo not shown) [Example 163, 1-[4-Fluoro-3-(7-morpholin-4-yl-quinazolin-4-yl)-phenyl]-1-thiazol-2-ylethanol] | 10 to 30
14 | Cc1nc(C(O)c2ccc(F)c(-c3ncnc4cc(N5CCOCC5)ccc34)c2)sc1CO (stereo not shown) [Example 200, [4-Fluoro-3-(7-morpholin-4-yl-quinazolin-4-yl)-phenyl]-(5-hydroxy-methyl-4-methyl-thiazol-2-yl)-methanol] | 5 to 10
15 | COc1ccc(C(O)c2cc(-c3ncnc4cc(N5CCOCC5)ccc34)c(F)cc2F)cc1 (stereo not shown) [Example 120, [2,4-Difluoro-5-(7-morpholin-4-yl-quinazolin-4-yl)-phenyl]-(4-methoxyphenyl)-methanol] | 0.5 to 5
16 | Nc1nccnc1C(O)c1cc(-c2ncnc3cc(N4CCOCC4)ccc23)c(F)cc1Cl (stereo not shown) [Example 117, (3-Amino-pyrazin-2-yl)-[2-chloro-4-fluoro-5-(7-morpholin-4-yl-quinazolin-4-yl)-phenyl]methanol] | 0.5 to 5
17 | COc1ccc(C(O)c2cc(-c3ncnc4cc(N5CCOCC5)ccc34)c(F)cc2F)nc1 (stereo not shown) [Example 224, [2,4-Difluoro-5-(7-morpholin-4-yl-quinazolin-4-yl)-phenyl]-(5-methoxy-pyridin-2-yl)methanol] | 0.5 to 5
18 | OC(c1ccc(OC2COC2)nn1)c1cc(-c2ncnc3cc(N4CCOCC4)ccc23)c(F)cc1Cl (stereo not shown) [Example 100, [2-Chloro-4-fluoro-5-(7-morpholin-4-yl-quinazolin-4-yl)-phenyl]-[6-(oxetan-3-yloxy)pyridazin-3-yl]-methanol] | < 0.5
19 | Cn1nc(C(O)c2ccc(F)c(-c3ncnc4cc(N5CCOCC5)ccc34)c2F)ccc1=O (stereo not shown) [Example 220, 6-{[2,4-Difluoro-3-(7-morpholin-4-yl-quinazolin-4-yl)-phenyl]hydroxy-methyl}-2-methyl-2H-pyridazin-3-one] | 5 to 10
20 | NC(=O)COc1ccc(C(O)c2cc(-c3ncnc4cc(N5CCOCC5)ccc34)c(F)cc2Cl)nn1 (stereo not shown) [Example 111, 2-(6-{[2-Chloro-4-fluoro-5-(7-morpholin-4-yl-quinazolin-4-yl)-phenyl]hydroxy-methyl}pyridazin-3-yloxy)acetamide] | 5 to 10

same assay, conditions: Homo sapiens, HCT-116, phospho-serine 2056 DNA-PK, bleomycin-treated HCT116 cells; read-out: IC50 pDNA-PK

Row | Compound | IC50 [µM]
21 | Cc1nccnc1C(C(N)=O)c1cc(-c2ncnc3cc(N4CCOCC4)ccc23)c(F)cc1Cl (stereo not shown) [Example 324, 2-[2-Chloro-4-fluoro-5-(7-morpholin-4-yl-quinazolin-4-yl)-phenyl]-2-(3-methyl-pyrazin-2-yl)-acetamide] | 0.5 to 5
22 | Cc1nccnc1C(C(N)=O)c1cc(-c2ncnc3cc(N4CCOCC4)ccc23)ccc1Cl (stereo not shown) [Example 303, 2-[2-Chloro-5-(7-morpholin-4-yl-quinazolin-4-yl)-phenyl]-2-(3-methyl-pyrazin-2-yl)-acetamide] | 5 to 10
23 | Cc1cncc(C(O)c2ccc(F)c(-c3ncnc4cc(N5CCOCC5)ccc34)c2)n1 (stereo not shown) [Example 296, [4-Fluoro-3-(7-morpholin-4-yl-quinazolin-4-yl)-phenyl]-(6-methyl-pyrazin-2-yl)-methanol] | 5 to 10
24 | NC(=O)C(c1ccc(F)c(-c2ncnc3cc(N4CCOCC4)ccc23)c1)c1ncccc1Cl (stereo not shown) [Example 313, 2-(3-Chloro-pyridin-2-yl)-2-[4-fluoro-3-(7-morpholin-4-yl-quinazolin-4-yl)-phenyl]acetamide] | 5 to 10
25 | [2H]C1([2H])OC([2H])([2H])C([2H])([2H])N(c2ccc3c(-c4cc(C(O)c5nccnc5C)ccc4F)ncnc3c2)C1([2H])[2H] (stereo not shown) [Example 238, [4-Fluoro-3-[7-(2,2,3,3,5,5,6,6-octadeuterio-morpholin-4-yl)quinazolin-4-yl]phenyl]-(3-methyl-pyrazin-2-yl)-methanol] | < 0.5
26 | OC(c1cc(-c2ncnc3cc(N4CCOCC4)ccc23)ccc1Cl)c1nccn2cccc12 (stereo not shown) [Example 361, [2-Chloro-5-(7-morpholin-4-yl-quinazolin-4-yl)-phenyl]pyrrolo[1,2-a]-pyrazin-1-ylmethanol] | 0.5 to 5
27 | OC(c1ccc(F)c(-c2ncnc3cc(N4CCOCC4)ccc23)c1)c1nccc2ccoc12 (stereo not shown) [Example 328, [4-Fluoro-3-(7-morpholin-4-yl-quinazolin-4-yl)-phenyl]furo[2,3-c]-pyridin-7-ylmethanol] | < 0.5
28 | Cc1nccnc1C(C(N)=O)c1ccc(F)c(-c2ncnc3cc(N4CCOCC4)ccc23)c1 (stereo not shown) [Example 327, 2-[4-Fluoro-3-(7-morpholin-4-yl-quinazolin-4-yl)-phenyl]-2-(3-methyl-pyrazin-2-yl)-acetamide] | 10 to 30

same assay, conditions: cellular DNA-PK phosphorylation at serine 2056, HCT116 cells; read-out: IC50 pDNA-PK

Row | Compound | IC50 [µM]
29 | Cc1cncnc1C(O)c1cc(-c2ncnc3cc(N4CCOCC4)ccc23)ccc1Cl (stereo not shown) [Example 419, [2-Chloro-5-(7-morpholin-4-yl-quinazolin-4-yl)-phenyl]-(5-methyl-pyrimidin-4-yl)-methanol] | 0.5 to 5
30 | OC(c1cc(-c2ncnc3cc(N4CCOCC4)ccc23)c(F)cc1F)c1nccnc1OC(F)F (stereo not shown) [Example 450, (3-Difluoromethoxy-pyrazin-2-yl)-[2,4-difluoro-5-(7-morpholin-4-yl-quinazolin-4-yl)-phenyl]methanol] | 5 to 10
31 | Cc1cncnc1C(C(N)=O)c1cc(-c2ncnc3cc(N4CCOCC4)ccc23)ccc1Cl (stereo not shown) [Example 407, 2-[2-Chloro-5-(7-morpholin-4-yl-quinazolin-4-yl)-phenyl]-2-(5-methyl-pyrimidin-4-yl)-acetamide] | 0.5 to 5

same assay, conditions: cellular; HCT116 cells, 10 μM bleomycin, six hours; read-out: IC50 pDNA-PK

Row | Compound | IC50 [µM]
32 | OC(c1ccc2nccn2n1)c1cc(-c2ncnc3cc(N4CCOCC4)ccc23)c(F)cc1F (stereo not shown) [Example 51, [2,4-Difluoro-5-(7-morpholin-4-yl-quinazolin-4-yl)phenyl]-imidazo[1,2-b]pyridazin-6-ylmethanol] | < 0.5

same assay, conditions: phospho-serine 2056 DNA-PK, bleomycin-treated HCT116 cells; class symbols A-D; read-out: IC50 pDNA-PK

Row | Compound | IC50 [µM]
33 | OC(c1ccc(F)c(-c2ncnc3cc(N4CCOCC4)sc23)c1)c1nccs1 (stereo not shown) [Example 146, [4-Fluoro-3-(6-morpholin-4-yl-thieno[3,2-d}-pyrimidin-4-yl)-phenyl]thiazol-2-yl-methanol] | 0.5 to 5

same assay, conditions: phospho-serine 2056 DNA-PK, bleomycin-treated HCT116 cells; read-out: IC50 pDNA-PK

Row | Compound | IC50 [µM]
34 | COc1ccc(C(O)c2ccc(F)c(-c3ncnc4cc(N5CCOCC5)cc(F)c34)c2)nn1 (stereo not shown) [Example 260, [4-Fluoro-3-(5-fluoro-7-morpholin-4-yl-quinazolin-4-yl)-phenyl]-(6-methoxy-pyridazin-3-yl)-methanol] | < 0.5
